Data reported in patent publication US7230166B2, “Variety of four-leaf clover and a method for breeding the same” (priority 2002, dated 2007).

Assays:
Type in all cases: cell-based, white clover (Trifolium repense L.)
[1] = system: shoots of the white clover; test: Effects of BAP, IAA and NAA on the shoot propagation of the clover
Protocol: Furthermore, in order to promote mutation and cell division of shoots of the white clover, the shoots were treated with cold water of 5° C. for 20 seconds, which in turn were transferred to a solution of Ethyl Methane Sulfonate of 0.2 μg/L for 3 seconds. Then, the shoots were washed with sterile water. […] The incubation of the shoots was carried out under the conditions of temperature of 21° C. and luminous intensity of 500 lux.

[2] = system: cut segments of the white clover; test: Effects of Ethyl Methane Sulfonate on the mutation of the shoots; conditions: for Color of leaves / Heliophilous / Mutation ratio (%) / Numbers of leaves / Numbers of stems / Shape of leaves: 3.0 sec
Description: Two hundreds of wild-type white clovers, which were native in Korea, were harvested, wherein the respective clovers had three leaves and a stem of a length of about 7 cm.
All leaves were removed from the clovers. Then, the stems of the clovers were cut at a length of about 3˜4 cm, which are transferred to a conical flask and subjected to a solution of ethyl alcohol of 70% for 30 seconds to sterilize the stems. Next, the segments of stems were washed with sterile water, which in turn were transferred to a solution of ethyl alcohol of 70% for 15 minutes to sterilize surfaces of the stem segments. Continuously, the stem segments were washed with sterile water three times.
The sterilized segments of the white clovers were cut again at a length of 2˜3 mm in a clean bench, wherein each of the cut segments included growing point. The resulting cut segments of the white clover were treated with Ethyl Methane Sulfonate in order to induce mutation.
Referring to the Table 1, shoots were respectively treated with Ethyl Methane Sulfonate of 0.1˜0.3 μg/L for 3 seconds. As the result, when the shoots were treated with Ethyl Methane Sulfonate of 0.2 μg/L, the ratio, regarding the growth of four leaves from the stem, is highest.

[3] = system: cultivated shoots of the clover; test: Effects of IAA/IBA and NAA on shoot growth and rooting of the cultivated shoots; conditions: for Length of roots (cm) / Length of shoots (cm) / Numbers of roots/segments / Numbers of shoots/segments / Weight of shoots/segments: basic MS medium + SUCROSE 20 g/L;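 as to Length of roots (cm): Auxin doses in mg/L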;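 as to Length of shoots (cm): Auxin doses in mg/L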;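 as to Numbers of roots/segments: Auxin doses in mg/L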;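 as to Numbers of shoots/segments: Auxin doses in mg/L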;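 as to Weight of shoots/segments (g): Auxin doses in mg/L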
Protocol: The cultivation was carried out under the conditions of acidity of pH 5.5, 22˜25° C. and luminous intensity of 800 lux.

shoots of the clover = test: Effects of the density of sucrose in the medium on the propagation and growth of shoots
Protocol: Meanwhile, sucrose of […] was added to the medium in order to reduce the callus formation and the transparency ratio during the cultivation of the shoots.

[4] = medium with BAP of 1.0˜2.0 mg/L
[5] = Sucrose 10 mg/L, basic MS medium + BAP 2.0 mg/L + IAA 0.5 mg/L
[6] = Sucrose 15 mg/L, basic MS medium + BAP 2.0 mg/L + IAA 0.5 mg/L
[7] = Sucrose 20 mg/L, basic MS medium + BAP 2.0 mg/L + IAA 0.5 mg/L
[8] = Sucrose 25 mg/L, basic MS medium + BAP 2.0 mg/L + IAA 0.5 mg/L
[9] = Sucrose 30 g/L, basic MS medium + BAP 2.0 mg/L + IAA 0.5 mg/L

c1ccc(CNc2ncnc3nc[nH]c23)cc1 [BAP, 6-Benzylaminopurine]
incubation efficiency of the shoots ([1]; in proportion to the density of the BAP): enhanced
average number of the shoots [1, 4]: more than 2.7
transparency ratio [1, 4]: more than 42.3%

CCOS(C)(=O)=O [EMS, Ethyl Methane Sulfonate]
Color of leaves ([2]; EMS 0.1 μg/L): Light
Heliophilous ([2]; EMS 0.1 μg/L): 0.3c
Mutation ratio (%) ([2]; EMS 0.1 μg/L): 12c %
Numbers of leaves ([2]; EMS 0.1 μg/L): 4c
Numbers of stems ([2]; EMS 0.1 μg/L): 6c
Shape of leaves ([2]; EMS 0.1 μg/L): Heart
Color of leaves ([2]; EMS 0.2 μg/L): Light
Heliophilous ([2]; EMS 0.2 μg/L): 1.5a
Mutation ratio (%) ([2]; EMS 0.2 μg/L): 25a %
Numbers of leaves ([2]; EMS 0.2 μg/L): 4a
Numbers of stems ([2]; EMS 0.2 μg/L): 10b
Shape of leaves ([2]; EMS 0.2 μg/L): Heart
Color of leaves ([2]; EMS 0.3 μg/L): Light
Heliophilous ([2]; EMS 0.3 μg/L): 2.5b
Mutation ratio (%) ([2]; EMS 0.3 μg/L): 18b %
Numbers of leaves ([2]; EMS 0.3 μg/L): 4b
Numbers of stems ([2]; EMS 0.3 μg/L): 8b
Shape of leaves ([2]; EMS 0.3 μg/L): Heart
ratio regarding the growth of four leaves from the stem ([2]; Ethyl Methane Sulfonate of 0.2 μg/L for 3 seconds, among 0.1˜0.3 μg/L): highest

O=C(O)CCCc1c[nH]c2ccccc12 [IBA]
Length of roots (cm) ([3]; IBA 0.5): 4.9 a cm
Length of shoots (cm) ([3]; IBA 0.5): 5.1 a cm
Numbers of roots/segments ([3]; IBA 0.5): 2.2 ab
Numbers of shoots/segments ([3]; IBA 0.5): 1.4 a
Weight of shoots/segments ([3]; IBA 0.5): 3.4 g
Length of roots (cm) ([3]; IBA 1.5): 4.6 a cm
Length of shoots (cm) ([3]; IBA 1.5): 5.3 a cm
Numbers of roots/segments ([3]; IBA 1.5): 2.8 ab
Numbers of shoots/segments ([3]; IBA 1.5): 1.2 a
Weight of shoots/segments ([3]; IBA 1.5): 4.66 g
Length of roots (cm) ([3]; IBA 2.0): 5.1 a cm
Length of shoots (cm) ([3]; IBA 2.0): 5.1 a cm
Numbers of roots/segments ([3]; IBA 2.0): 3.4 a
Numbers of shoots/segments ([3]; IBA 2.0): 1.0 a
Weight of shoots/segments ([3]; IBA 2.0): 4.21 g
Length of roots (cm) ([3]; IBA 5.0): 3.1 b cm
Length of shoots (cm) ([3]; IBA 5.0): 4.7 a cm
Numbers of roots/segments ([3]; IBA 5.0): 1.2 b
Numbers of shoots/segments ([3]; IBA 5.0): 1
Weight of shoots/segments ([3]; IBA 5.0): 3.33 g
rooting of the shoots ([3]; IBA of 0.5 mg/L added to the basic MS medium): induced well

O=C(O)Cc1cccc2ccccc12 [NAA, α-Naphthaleneacetic Acid]
Length of roots (cm) ([3]; NAA 0.5): 4.8 a cm
Length of shoots (cm) ([3]; NAA 0.5): 4.6 a cm
Numbers of roots/segments ([3]; NAA 0.5): 3.2 a
Numbers of shoots/segments ([3]; NAA 0.5): 1.0 a
Weight of shoots/segments ([3]; NAA 0.5): 3.92 g
Length of roots (cm) ([3]; NAA 1.0): 3.6 ab cm
Length of shoots (cm) ([3]; NAA 1.0): 4.8 a cm
Numbers of roots/segments ([3]; NAA 1.0): 2.5 ab
Numbers of shoots/segments ([3]; NAA 1.0): 1.1 a
Weight of shoots/segments ([3]; NAA 1.0): 4.21 g
Length of roots (cm) ([3]; NAA 2.0): 3.4 b cm
Length of shoots (cm) ([3]; NAA 2.0): 4.8 a cm
Numbers of roots/segments ([3]; NAA 2.0): 1.9 b
Weight of shoots/segments ([3]; NAA 2.0): 3.42 g
Length of roots (cm) ([3]; NAA 5.0): 3.2 b cm
Length of shoots (cm) ([3]; NAA 5.0): 4.2 a cm
Numbers of roots/segments ([3]; NAA 5.0): 1.6 b
Numbers of shoots/segments ([3]; NAA 5.0): 1.0 a
Weight of shoots/segments ([3]; NAA 5.0): 3.72 g
rooting of the shoots ([3]; NAA of 0.5˜1.0 mg/L added to the basic MS medium): induced well

OC[C@H]1O[C@@](CO)(O[C@H]2O[C@H](CO)[C@@H](O)[C@H](O)[C@H]2O)[C@@H](O)[C@@H]1O [Sucrose, sucrose]
Length of shoots (cm) (shoots of the clover; [5]): 3.2 a cm
Numbers of shoots/segments (shoots of the clover; [5]): 3.2 a^a
Weight of shoots/segments (g) (shoots of the clover; [5]): 1.66 a g
transparency ratio (%) (shoots of the clover; [5]): 3.46 b %
Length of shoots (cm) (shoots of the clover; [6]): 4.1 a cm
Numbers of shoots/segments (shoots of the clover; [6]): 3.9 a
Weight of shoots/segments (g) (shoots of the clover; [6]): 2.13 ab g
transparency ratio (%) (shoots of the clover; [6]): 40.1 a %
Length of shoots (cm) (shoots of the clover; [7]): 4.8 a cm
Numbers of shoots/segments (shoots of the clover; [7]): 4.0 a
Weight of shoots/segments (g) (shoots of the clover; [7]): 2.17 ab g
transparency ratio (%) (shoots of the clover; [7]): 46.7 a %
Callus formation (shoots of the clover; [8]): ++
Length of shoots (cm) (shoots of the clover; [8]): 3.9 a cm
Numbers of shoots/segments (shoots of the clover; [8]): 3.6 a
Weight of shoots/segments (g) (shoots of the clover; [8]): 2.43 ab g
transparency ratio (%) (shoots of the clover; [8]): 42.4 a %
Callus formation (shoots of the clover; [9]): +++
Length of shoots (cm) (shoots of the clover; [9]): 4.4 a cm
Numbers of shoots/segments (shoots of the clover; [9]): 3.4 a
Weight of shoots/segments (g) (shoots of the clover; [9]): 2.73 a g
transparency ratio (%) (shoots of the clover; [9]): 50.7 a %
Callus formation (shoots of the clover; sucrose of 15˜20 g/L in the medium): callus was generated only
